Data reported in PMC5132298 (PLoS ONE, 2016).
Values after ≈ are worked out from the molar mass of the structure shown.

Columns and labels:
[1] = system: S. cerevisiae AD3Δ overexpressing ScErg11p6×His wild type, native ERG11 deleted; assay: MIC50 broth microdilution, AD3Δ strain overexpressing wild type ScErg11p6×His; type: cell-based, Saccharomyces cerevisiae; settings: for fold more active than the R enantiomer (MIC50): S versus R enantiomer, MIC50 values for AD3Δ strains
Description: (§1) The susceptibility to azole compounds of S. cerevisiae AD3Δ strains overexpressing Erg11p6×His wild type and Y140F/H, but with the native ERG11 deleted, as well as the host strain (AD2Δ) which retained the wild type ERG11 (S2 Table), were measured as MIC50 values (Table 1). […] PTZ has been reported to be a prodrug for DPZ [27]. […] There was a 3.3 fold (0.28 ± 0.02 μM) and a 4.3 fold (1.2 ± 0.2 μM) reduction in susceptibility to S-PTZ in the Y140F and Y140H mutant strains respectively. There was only a 2 fold reduction in susceptibility to R-PTZ in the Y140H mutant strain with no change seen in the Y140F strain. The PTZ metabolite, S-DPZ produced a 4.6 fold (0.073 ± 0.016 μM) and 3 fold (0.048 ± 0.009 μM) reduction is susceptibility against the Y140F and Y140H mutant strains respectively. […] Again we observed 8.3 fold (3.3 ± 0.7 μM) and 4 fold (1.6 ± 0.5 μM) reduction in susceptibility to FQZ in the Y140F and Y140H mutant strains respectively.
(§2) The susceptibilities of strains overexpressing wild type ScErg11p6×His and ScErg11p6×His Y140F/H to CYP51 inhibitors were measured as MIC50 values using broth microdilution assays as described previously.[21] The MIC50s were defined as the concentration of drug required for 50% growth inhibition compared to no drug controls.

[2] = system: S. cerevisiae AD2Δ host strain (native ERG11 retained); assay: MIC50 broth microdilution, AD2Δ host strain with native ERG11 retained; type: cell-based, Saccharomyces cerevisiae
Description: as §1, §2

[3] = system: S. cerevisiae AD3Δ overexpressing ScErg11p6×His Y140F, native ERG11 deleted; assay: MIC50 broth microdilution, strain overexpressing ScErg11p6×His Y140F; type: cell-based, Saccharomyces cerevisiae; settings: for fold reduction in susceptibility in Y140F mutant strain: MIC50 Y140F strain versus AD3Δ wild type overexpressing strain
Description: as §1, §2

[4] = system: S. cerevisiae AD3Δ overexpressing ScErg11p6×His Y140H, native ERG11 deleted; assay: MIC50 broth microdilution, strain overexpressing ScErg11p6×His Y140H; type: cell-based, Saccharomyces cerevisiae; settings: for fold reduction in susceptibility in Y140H mutant strain: MIC50 Y140H strain versus AD3Δ wild type overexpressing strain
Description: as §1, §2

[5] = biological target: T1, ScErg11p6×His (S. cerevisiae lanosterol 14α-demethylase) (Saccharomyces cerevisiae, UniProt P10614); assay: Type II binding (difference spectra) to affinity purified ScErg11p6×His; settings: for mode of inhibition: ScErg11p6×His; for Induced spectral shift on ligand binding Wavelength: Soret peak, (-) indicates no significant change in Soret peak wavelength; for [Azole]0.5: azole concentration giving half ΔAmax, 1 µM ScErg11p6×His; for type of binding (difference spectra): azole up to 2 μM, 1 μM ScErg11p6×His
T1 construct: Crystal structures of the full length S. cerevisiae lanosterol 14α-demethylase (ScErg11p6×His); 6×His (hexahistidine); made in house; host or cells: Saccharomyces cerevisiae (AD3Δ overexpression strain, native ERG11 deleted)
Description: Type II azole binding is characterised by a shift of the Soret peak from 417 nm to 421–424 nm in ScErg11p6×His and other cytochrome P450s. The type II difference spectra were used to detect and quantitate binding of the inhibitors S-TBZ, R-TBZ, S-PTZ, R-PTZ, S-DPZ, R-DPZ, S-oxo-PTZ and R-oxo-PTZ, FQZ, and PRZ using Ni-NTA affinity purified wild type ScErg11p6×His preparations at 1 μM. Spectral shifts, [Azole]0.5 values, Hill coefficients as well as Type II difference spectra binding curves are shown in S3 Table (selected spectra shown in S2 Fig) and Fig 6, respectively.
Samples of Ni-NTA-agarose affinity purified ScErg11p6×His were eluted with 40 mM histidine instead of imidazole as described by Warrilow et al.. Samples were washed free of the histidine and concentrated by centrifugal filtration using a 50 kDa molecular-weight cut-off Amicon Ultra-4 centrifugal filter (Millipore) to give protein with a Soret peak at 417 nm. Carbon monoxide binding was used to determine the concentration of functional cytochrome P450 for drug binding studies as described previously based on the protocol described by Guengerich et al. Saturation curves for the binding of type II ligands were determined by obtaining difference spectra for functional enzyme at 1 μM as described previously. […] All calculations were carried out using GraphPad Prism 6 Software (GraphPad Prism, San Diego, CA). [Azole]0.5 values were defined as the concentration of the azole drug that gave half ΔAmax.
Hill coefficients and Kd values were obtained by applying the Hill equation as described in Materials and methods. (-) indicates no significant change in Soret peak wavelength on exposure to the ligand. The data presented is a representative set

[6] = AD3Δ, ScErg11p6×His overexpressed from PDR5 locus, native ERG11 deleted, mean ± standard error
[7] = AD2Δ host, native ERG11 retained, mean ± standard error
[8] = Y140F, ScErg11p6×His Y140F overexpressed from PDR5 locus, native ERG11 deleted, mean ± standard error
[9] = Y140H, ScErg11p6×His Y140H overexpressed from PDR5 locus, native ERG11 deleted, mean ± standard error

T1 sequence (P10614 whole entry): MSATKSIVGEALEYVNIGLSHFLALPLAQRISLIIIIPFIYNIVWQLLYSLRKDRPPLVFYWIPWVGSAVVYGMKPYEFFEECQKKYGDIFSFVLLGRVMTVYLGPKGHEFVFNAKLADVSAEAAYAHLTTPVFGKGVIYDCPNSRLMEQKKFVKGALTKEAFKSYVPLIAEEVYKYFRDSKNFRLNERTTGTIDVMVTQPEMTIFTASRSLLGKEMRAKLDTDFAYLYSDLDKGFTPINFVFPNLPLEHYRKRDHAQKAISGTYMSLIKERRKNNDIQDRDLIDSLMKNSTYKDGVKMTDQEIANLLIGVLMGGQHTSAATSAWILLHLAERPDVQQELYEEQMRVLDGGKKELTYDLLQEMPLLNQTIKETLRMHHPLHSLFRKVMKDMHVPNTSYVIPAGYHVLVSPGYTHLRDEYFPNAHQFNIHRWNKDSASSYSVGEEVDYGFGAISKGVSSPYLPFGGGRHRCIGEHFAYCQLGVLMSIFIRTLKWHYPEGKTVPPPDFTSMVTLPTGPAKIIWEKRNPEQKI

## CC1COC(Cn2cncn2)(c2ccc(Oc3ccc(Cl)cc3)cc2Cl)O1 (stereo not drawn) [Difenoconazole, difenoconazole]
[1]; Saccharomyces cerevisiae
  MIC50: 0.047 ± 0.009 µM (≈ 0.0191 µg/mL)
[2]; Saccharomyces cerevisiae
  MIC50: 0.0147 ± 0.0003 µM (≈ 0.00597 µg/mL)
[3]
  fold reduction in susceptibility in Y140F mutant strain: 5.2 fold
[3]; Saccharomyces cerevisiae
  MIC50: 0.243 ± 0.003 µM (≈ 0.0987 µg/mL)
[4]
  fold reduction in susceptibility in Y140H mutant strain: 5 fold
[4]; Saccharomyces cerevisiae
  MIC50: 0.237 ± 0.003 µM (≈ 0.0963 µg/mL)

## O=c1c2cc(F)ccc2nc(-n2cncn2)n1-c1ccc(Cl)cc1Cl [Fluquinconazole, fluquinconazole]
[5]
  Kd: 0.015 ± 0.021 µM
  mode of inhibition: non-competitive inhibitors
  [Azole]0.5: 0.31 µM
  type of binding (difference spectra): type II binding
[5]; listed as FQZ
  Induced spectral shift on ligand binding Wavelength: 417 nm to ~421
[1]; Saccharomyces cerevisiae
  MIC50: 0.4 ± 0.05 µM (≈ 0.15 µg/mL)
[2]; Saccharomyces cerevisiae
  MIC50: 0.17 ± 0.02 µM (≈ 0.064 µg/mL)
[3]
  fold reduction in susceptibility in Y140F mutant strain: 8.3 fold
[3]; Saccharomyces cerevisiae
  MIC50: 3.3 ± 0.7 µM (≈ 1.24 µg/mL)
[4]
  fold reduction in susceptibility in Y140H mutant strain: 4 fold
[4]; Saccharomyces cerevisiae
  MIC50: 1.6 ± 0.5 µM (≈ 0.602 µg/mL)

## CCCN(CCOc1c(Cl)cc(Cl)cc1Cl)C(=O)n1ccnc1 [Prochloraz, prochloraz]
[5]
  Kd: 0.027 ± 0.024 µM
  mode of inhibition: non-competitive inhibitors
  [Azole]0.5: 0.30 µM
  type of binding (difference spectra): type II binding
[5]; listed as PRZ
  Induced spectral shift on ligand binding Wavelength: 417 nm to ~421
[1]; Saccharomyces cerevisiae
  MIC50: 1.9 ± 0.5 µM (≈ 0.716 µg/mL)
[2]; Saccharomyces cerevisiae
  MIC50: 0.25 ± 0.02 µM (≈ 0.0942 µg/mL)
[3]
  fold reduction in susceptibility in Y140F mutant strain: 2.3 fold
[3]; Saccharomyces cerevisiae
  MIC50: 4.3 ± 0.8 µM (≈ 1.62 µg/mL)
[4]
  fold reduction in susceptibility in Y140H mutant strain: 3.5 fold
[4]; Saccharomyces cerevisiae
  MIC50: 6.7 ± 0.7 µM (≈ 2.52 µg/mL)

## O=c1[nH]cnn1CC(O)(Cc1ccccc1Cl)C1(Cl)CC1 (stereo not drawn) [R-Oxo-prothioconazole, R-oxo-prothioconazole]
[5]
  Induced spectral shift on ligand binding Wavelength: 417(-) nm
  type of binding (difference spectra): neither type I nor type II binding
[1]; [6]
  MIC50: 80 ± 2 µM (≈ 26.3 µg/mL)
[2]; [7]
  MIC50: 75.0 ± 3.0 µM (≈ 24.6 µg/mL)
[3]; [8]
  MIC50: 87 ± 7 µM (≈ 28.6 µg/mL)
[4]; [9]
  MIC50: 95 ± 5 µM (≈ 31.2 µg/mL)

## OC(Cc1ccccc1Cl)(Cn1nc[nH]c1=S)C1(Cl)CC1 (stereo not drawn) [R-Prothioconazole, R-prothioconazole]
[5]
  Induced spectral shift on ligand binding Wavelength: 417 (-) nm
[1]; [6]
  MIC50: 16 ± 3 µM (≈ 5.51 µg/mL)
[2]; [7]
  MIC50: 5.2 ± 1.3 µM (≈ 1.79 µg/mL)
[3]; listed as R-PTZ
  fold reduction in susceptibility in Y140F mutant strain: no change
[3]; [8]
  MIC50: 16 ± 4 µM (≈ 5.51 µg/mL)
[4]; listed as R-PTZ
  fold reduction in susceptibility in Y140H mutant strain: 2 fold
[4]; [9]
  MIC50: 31 ± 4 µM (≈ 10.7 µg/mL)

## O[C@](Cc1ccccc1Cl)(Cn1cncn1)C1(Cl)CC1 [R-Prothioconazole-desthio, R-prothioconazole-desthio]
[5]
  Kd: 0.054 ± 0.031 µM
  [Azole]0.5: 0.33 µM
  type of binding (difference spectra): type II binding
[1]; Saccharomyces cerevisiae
  MIC50: 3.2 ± 0.2 µM (≈ 0.999 µg/mL)
[2]; Saccharomyces cerevisiae
  MIC50: 0.47 ± 0.05 µM (≈ 0.147 µg/mL)
[3]
  fold reduction in susceptibility in Y140F mutant strain: 2.3 fold
[3]; Saccharomyces cerevisiae
  MIC50: 7.5 µM (≈ 2.34 µg/mL)
[4]
  fold reduction in susceptibility in Y140H mutant strain: 2.3 fold
[4]; Saccharomyces cerevisiae
  MIC50: 7.5 µM (≈ 2.34 µg/mL)

## CC(C)(C)[C@](O)(CCc1ccc(Cl)cc1)Cn1cncn1 [R-Tebuconazole, R-tebuconazole]
[5]
  Kd: 0.065 ± 0.035 µM
  [Azole]0.5: 0.30 µM
  type of binding (difference spectra): type II binding
[1]; Saccharomyces cerevisiae
  MIC50: 1.1 ± 0.3 µM (≈ 0.339 µg/mL)
[2]; Saccharomyces cerevisiae
  MIC50: 0.12 µM (≈ 0.0369 µg/mL)
[3]; Saccharomyces cerevisiae
  MIC50: 2 ± 0.2 µM (≈ 0.616 µg/mL)
[4]; Saccharomyces cerevisiae
  MIC50: 5.2 ± 1.3 µM (≈ 1.6 µg/mL)

## O=c1[nH]cnn1CC(O)(Cc1ccccc1Cl)C1(Cl)CC1 (stereo not drawn) [S-Oxo-prothioconazole, S-oxo-prothioconazole]
[5]
  Induced spectral shift on ligand binding Wavelength: 417(-) nm
  type of binding (difference spectra): neither type I nor type II binding
[1]; [6]
  MIC50: 84 ± 3 µM (≈ 27.6 µg/mL)
[2]; [7]
  MIC50: 75.0 ± 0.0 µM (≈ 24.6 µg/mL)
[3]; [8]
  MIC50: 87 ± 7 µM (≈ 28.6 µg/mL)
[4]; [9]
  MIC50: 97 ± 3 µM (≈ 31.8 µg/mL)

## OC(Cc1ccccc1Cl)(Cn1nc[nH]c1=S)C1(Cl)CC1 (stereo not drawn) [S-Prothioconazole, S-prothioconazole]
[5]
  Induced spectral shift on ligand binding Wavelength: 417 (-) nm
[1]; [6]
  MIC50: 0.28 ± 0.02 µM (≈ 0.0964 µg/mL)
[1]
  fold more active than the R enantiomer (MIC50): 57 fold
[2]; [7]
  MIC50: 0.077 ± 0.003 µM (≈ 0.0265 µg/mL)
[3]; [8]
  MIC50: 0.93 ± 0.0 µM (≈ 0.32 µg/mL)
[4]; listed as S-PTZ
  fold reduction in susceptibility in Y140H mutant strain: 4.3 fold
[4]; [9]
  MIC50: 1.2 ± 0.2 µM (≈ 0.413 µg/mL)

## O[C@@](Cc1ccccc1Cl)(Cn1cncn1)C1(Cl)CC1 [S-Prothioconazole-desthio, S-prothioconazole-desthio]
[5]
  Kd: 0.102 ± 0.045 µM
  [Azole]0.5: 0.42 µM
  type of binding (difference spectra): type II binding
[1]
  fold more active than the R enantiomer (MIC50): 200 fold
[1]; Saccharomyces cerevisiae
  MIC50: 0.0157 ± 0.0003 µM (≈ 0.0049 µg/mL)
[2]; Saccharomyces cerevisiae
  MIC50: 0.006 ± 0.001 µM (≈ 0.00187 µg/mL)
[3]
  fold reduction in susceptibility in Y140F mutant strain: 4.6 fold
[3]; Saccharomyces cerevisiae
  MIC50: 0.073 ± 0.016 µM (≈ 0.0228 µg/mL)
[4]
  fold reduction in susceptibility in Y140H mutant strain: 3 fold
[4]; Saccharomyces cerevisiae
  MIC50: 0.048 ± 0.009 µM (≈ 0.015 µg/mL)

## CC(C)(C)[C@@](O)(CCc1ccc(Cl)cc1)Cn1cncn1 [S-Tebuconazole, S-tebuconazole]
[5]
  Kd: 0.115 ± 0.044 µM
  [Azole]0.5: 0.33 µM
  type of binding (difference spectra): type II binding
[1]
  fold more active than the R enantiomer (MIC50): 15 fold
[1]; Saccharomyces cerevisiae
  MIC50: 0.073 ± 0.015 µM (≈ 0.0225 µg/mL)
[2]; Saccharomyces cerevisiae
  MIC50: 0.0197 ± 0.0003 µM (≈ 0.00606 µg/mL)
[3]
  fold reduction in susceptibility in Y140F mutant strain: 8.7 fold
[3]; Saccharomyces cerevisiae
  MIC50: 0.64 ± 0.11 µM (≈ 0.197 µg/mL)
[4]
  fold reduction in susceptibility in Y140H mutant strain: 11.9 fold
[4]; Saccharomyces cerevisiae
  MIC50: 0.87 ± 0.06 µM (≈ 0.268 µg/mL)

## CC(C)(C)C(O)(CCc1ccc(Cl)cc1)Cn1cncn1 (stereo not drawn) [TBZ, tebuconazole]
[5]
  mode of inhibition: non-competitive inhibitors
  Induced spectral shift on ligand binding Wavelength: 417 nm to ~421

## O=c1[nH]cnn1CC(O)(Cc1ccccc1Cl)C1(Cl)CC1 (stereo not drawn) [oxo-PTZ, oxo-prothioconazole]
[5]
  Induced spectral shift on ligand binding Wavelength: absence of a spectral shift
